Marks after values point to notes of the source that are not given here.
How the values were obtained:
Type in all cases: in vivo, rat
[1] = system: extracellular ACh in NAcShell; test: ACh efflux in NAcShell, infusion by reverse dialysis in freely moving rats; conditions: for extracellular ACh: 20 min infusion in NAcShell by reverse dialysis, oxotremorine 4 mM (hour following infusion), gallamine 1 mM, scopolamine 10 mM probe concentration
Method: To determine if the M2 drugs act presynaptically on autoreceptors controlling ACh release, freely moving rats received infusions of an M2 agonist or antagonist in the NAcShell for 20 min by reverse dialysis while extracellular ACh was measured.
To determine if the M2 drugs act presynaptically on autoreceptors controlling ACh release, freely moving rats received infusions of an M2 agonist or antagonist in the NAc for 20 min by reverse dialysis while extracellular ACh was measured.

[2] = system: rats (NAcShell injection); test: locomotor activity in a photocell cage after drug injection in the NAcShell; conditions: 10 min following injection in NAcShell; arecoline 40 μg, pirenzepine 35 μg, scopolamine 1 μg, gallamine 0.88 μg
Method: FIG. 4 is a graph illustrating the effects of cholinergic drugs on locomotor activity in a photocell cage. Activity in the 10 min following drug injection in the NAcShell (black bars) is expressed as a percentage of control injections normalized to 100% (white bars).
FIG. 4 illustrates the effects of cholinergic drugs on locomotor activity in a photocell cage. Activity in the 10 min following drug injection in the NAc (black bars) is expressed as a percentage of control injections normalized to 100% (white bars).

[3] = system: rats (NAcShell injection); test: Porsolt swim test after injection of mAChR agonists and antagonists in the NAcShell; conditions: 600 sec swim test
Method: FIG. 3 is a graph illustrating swimming time following injections of cholinergic drugs in NAc (black bars), compared to Ringer (white bars). (A) Local injection of arecoline, a muscarinic agonist, decreased swim time; the animals quickly gave up (40 μg, −41%, n=8, t=3.53, p<0.01; and 80 μg, −66%, n=6, t=4.12, p<0.01). (B) Pirenzepine, an M1 antagonist, increased swimming escape attempts in the manner of an antidepressant, but note this is a local injection (17.5 μg, n=8, +39%, t=3.63, p<0.01; 35 μg, +40%, n=9, t=7.15, p<0.001). […] (D) Local gallamine, an M2 antagonist, decreased swim time (0.13 μg/side, −21%, n=7, t=3.72, p<0.01; 0.44 μg/side, −37%, n=8, t=2.95, p<0.05; 0.88 μg/side, −36%, n=7, t=4.64, p<0.01). Swimming time following Ringer is normalized to 100%, with each bar representing the mean of the normalized responses across subjects. Swimming time following a drug injection is expressed as a percentage of the swimming time following vehicle injection on a different day. Significant changes in the within-subject response to drug injections are indicated with asterisks (* p<0.05, ** p<0.01, *** p<0.001).
The Porsolt swim test is an animal model of depression widely used as a screen for drugs with potential antidepressant effects in humans and for elucidating the pharmacological mechanisms of action of antidepressant medications. For example, the following procedure may be used:
On the first day of this test (day 1), a rodent (typically a rat) is placed in a cylindrical water tank for 15 min. Then after 24 hours (day 2) and 48 hours (day 3), drug and Ringer are administered to the animal in counterbalanced order. Immediately following each injection, the animal is placed in the swim test for 10 min. The length of time it swims during the swim tests is recorded. “Swimming” is defined by escape behaviors (i.e. diving, rigorous paddling with all four legs, circling the tank, and clambering at the tank walls). ‘Immobility’ was scored as floating and treading water just enough to keep the nose above water. Typically, after the first swimming session, animals become behaviorally depressed as shown by swimming less on later test days (day 2 or 3). […] Antidepressants increase swimming without affecting locomotor activity, whereas non-antidepressant drugs such as certain psychostimulants may also decrease immobility, but also increase locomotor activity in the open field test. Therefore, to screen a potential antidepressant, the swim test is typically followed by test for hyperactivity in the open field.
Rats were placed in the 600 sec (10 min) swim test following injections of drugs in the NAcShell. When not swimming, rats floated or made minimal forepaw movements to keep their noses above water. Each rat received one drug counterbalanced with Ringer on a separate day. The shorter control swim times for the gallamine group, relative to groups that received other drugs, may have been due to a seasonal difference. Control injections, shown in the last line, were made 2 mm dorsal to the accumbens (Pirenzepine Ctrl). Asterisks indicate significant difference between drug and Ringer (* p<0.05; ** p<0.01; *** p<0.001).

Row | Compound | extracellular ACh [1] | ACh level in the NAc, effect in words ([1]; inventor's data (Chau et al. 2001)) | locomotor activity vs Ringer, in words [2] | Drug (sec), mean swimming time ([3]; 0.13 μg/side in NAcShell) | Percent change of swimming time vs Ringer ([3]; 0.13 μg/side in NAcShell) | Time diff (sec), drug vs Ringer ([3]; 0.13 μg/side in NAcShell) | Percent change of swimming time vs Ringer ([3]; 0.13 μg/side in NAcShell, listed as gallamine) | Drug (sec), mean swimming time ([3]; 0.44 μg/side in NAcShell) | Percent change of swimming time vs Ringer ([3]; 0.44 μg/side in NAcShell) | Time diff (sec), drug vs Ringer ([3]; 0.44 μg/side in NAcShell) | Percent change of swimming time vs Ringer ([3]; 0.44 μg/side in NAcShell, listed as gallamine) | duration of the ACh increase (until return to baseline) ([1]; gallamine 1 mM: time following the infusion, scopolamine 10 mM)
1 | O=C1CCCN1CC#CCN1CCCC1 [oxotremorine] | 55 % of baseline | decreasing ACh | – | – | – | – | – | – | – | – | – | –
2 | CC[N+](CC)(CC)CCOc1cccc(OCC[N+](CC)(CC)CC)c1OCC[N+](CC)(CC)CC [Gallamine] | 437 % of baseline | – | not significantly different from Ringer | 155 ± 26** sec | −21% | -41 s | −21% | 148 ± 24* sec | −37% | -88 s | −37% | 20 min
